# Values of other authors, collected in PMC6311893, “Computational prediction of plasma protein binding of cyclic peptides from small molecule experimental data using sparse modeling techniques” (BMC Bioinformatics, 2018).
# Structures can show the parent of a compound that is named as a salt.
# Test system: plasma protein
# Settings: fraction bound to plasma protein; small molecule dataset, sheet 1-SM (Set Dte = test, Dtr = training); ref Ingle et al.; cited from earlier work
row,Compound,PPB (fb)
1,C[C@@H](NCCCc1cccc(C(F)(F)F)c1)c1cccc2ccccc12 [Cinacalcet hydrochloride],0.95
2,Cc1cc(C)nc(NS(=O)(=O)c2ccc(N)cc2)n1 [sulfadimidine],0.85
3,COc1cc(N)c(Cl)cc1C(=O)NC1CCN(CCCOc2ccc(F)cc2)CC1OC (centres unmarked) [cisapride],0.98
4,CCCSc1ccc2nc(NC(=O)OC)[nH]c2c1 [albendazole],0.7
5,CCOC(=O)[C@H](CCc1ccccc1)N[C@@H](C)C(=O)N1[C@H](C(=O)O)C[C@H]2CCCC[C@@H]21 [trandolapril],0.84
6,COc1ccc(CCNCC(O)COc2cccc(C)c2)cc1OC (centres unmarked) [Bevantolol],0.97
7,CO/N=C(\C(=O)N[C@@H]1C(=O)N2C(C(=O)O)=C(COC(C)=O)CS[C@H]12)c1csc(N)n1 [Cefotaxime],0.38
8,CC(c1cc2ccccc2s1)N(O)C(N)=O (centres unmarked) [zileuton],0.93
9,Cc1cc(CC(=O)O)n(C)c1C(=O)c1ccc(Cl)cc1 [zomepirac],0.98
10,CCc1oc2ccccc2c1C(=O)c1cc(Br)c(O)c(Br)c1 [benzbromarone],0.99
11,Cc1ccc(-c2cc(C(F)(F)F)nn2-c2ccc(S(N)(=O)=O)cc2)cc1 [celecoxib],0.97

# Same assay, conditions: fraction bound to plasma protein; small molecule dataset, sheet 1-SM, Set Dtr; ref Ingle et al.; cited from earlier work
row,Compound,PPB (fb)
1,CO[C@@]1(NC(=O)C2SC(=C(C(N)=O)C(=O)O)S2)C(=O)N2C(C(=O)O)=C(CSc3nnnn3C)CS[C@@H]21 (some centres unmarked) [Cefotetan],0.84
2,CC(=O)O[C@H]1C(=O)[C@@]2(C)[C@H]([C@H](OC(=O)c3ccccc3)[C@]3(O)C[C@H](OC(=O)[C@H](O)[C@@H](NC(=O)c4ccccc4)c4ccccc4)C(C)=C1C3(C)C)[C@]1(OC(C)=O)CO[C@@H]1C[C@@H]2O [Paclitaxel],0.76
3,NC(=O)OC[C@@H]1[C@H](NC(=O)/C(=N\OCC(=O)O)c2csc(N)n2)C(=O)N1S(=O)(=O)O [Carumonam],0.28
4,O=C(NCCN1CCOCC1)c1ccc(Cl)cc1 [Moclobemide],0.36
5,COc1cc(NS(C)(=O)=O)ccc1Nc1c2ccccc2nc2ccccc12 [Amsacrine],0.98
6,CC(CN(C)C)CN1c2ccccc2Sc2ccccc21 (centres unmarked) [trimeprazine],0.85

# Same assay, conditions: fraction bound to plasma protein; small molecule dataset, sheet 1-SM; ref Ingle et al.; cited from earlier work
row,Compound,PPB (fb)
1,CCOc1cc(CC(=O)N[C@@H](CC(C)C)c2ccccc2N2CCCCC2)ccc1C(=O)O [Repaglinide],0.98
2,COc1c(C)c2c(c(O)c1C/C=C(\C)CCC(=O)OCCN1CCOCC1)C(=O)OC2 [Mycophenolate mofetil],0.97
3,COc1ncnc(NS(=O)(=O)c2ccc(N)cc2)c1OC [sulfadoxine],0.94
4,CC(C)Cc1ccc(C(C)C(=O)NCCCN2CCCC2)cc1 (centres unmarked) [JMC_06],0.85
5,Cc1cc(C(=O)NCCc2ccc(S(=O)(=O)NC(=O)NN3CCCCCC3)cc2)no1 [glisoxepide],0.93
6,CC12CC3CC(C)(C1)CC(N)(C3)C2 [Memantine],0.45
7,CNCC[C@H](Oc1cccc2ccccc12)c1cccs1 [Duloxetine],0.9
8,CCC[C@H](N[C@@H](C)C(=O)N1[C@H](C(=O)O)C[C@@H]2CCCC[C@@H]21)C(=O)OCC [perindopril],0.6
9,CC[C@H]1OC(=O)[C@H](C)C(=O)[C@H](C)[C@@H](O[C@@H]2O[C@H](C)C[C@H](N(C)C)[C@H]2O)[C@](C)(OC)C[C@@H](C)C(=O)[C@H](C)[C@H]2N(CCCCn3cnc(-c4cccnc4)c3)C(=O)O[C@]12C [Telithromycin],0.59
10,Nc1nnc(-c2cccc(Cl)c2Cl)c(N)n1 [lamotrigine],0.55
11,Nc1nc2c(c(=O)[nH]1)N(C=O)C(CNc1ccc(C(=O)N[C@@H](CCC(=O)O)C(=O)O)cc1)CN2 (some centres unmarked) [leucovorin],0.91
12,CCC(CC)(CC)C(=O)NC1C(=O)N2C1SC(C)(C)C2C(=O)O (centres unmarked) [penicillin20],0.94

# Same assay, conditions: plasma; cited from earlier work
row,Compound,PPB (fb)
1,CC(C)=CCN1CCC2(C)c3cc(O)ccc3CC1C2C (centres unmarked) [Pentazocine],0.61
2,CCCOC(=O)Cc1ccc(OCC(=O)N(CC)CC)c(OC)c1 [propanidid],0.75
3,CC(C)c1cccc(C(C)C)c1O [Propofol],0.98
